{"source": "patent US8304258B2", "about": "“Methods of producing monoclonal antibodies specific for human hepcidin” (DRG International, Inc., priority 2002, dated 2012)", "key": {"[1]": {"target": "T1, Ferroportin-GFP (Fpn-GFP) (Mus musculus, UniProt Q9JHI9)", "T1 construct": "expressed in transfected cells; host or cells: EcR293 cells (resulting HEK293-Fpn cells), induced with ponasterone for 24 h", "T1 sequence (Q9JHI9 1-570)": "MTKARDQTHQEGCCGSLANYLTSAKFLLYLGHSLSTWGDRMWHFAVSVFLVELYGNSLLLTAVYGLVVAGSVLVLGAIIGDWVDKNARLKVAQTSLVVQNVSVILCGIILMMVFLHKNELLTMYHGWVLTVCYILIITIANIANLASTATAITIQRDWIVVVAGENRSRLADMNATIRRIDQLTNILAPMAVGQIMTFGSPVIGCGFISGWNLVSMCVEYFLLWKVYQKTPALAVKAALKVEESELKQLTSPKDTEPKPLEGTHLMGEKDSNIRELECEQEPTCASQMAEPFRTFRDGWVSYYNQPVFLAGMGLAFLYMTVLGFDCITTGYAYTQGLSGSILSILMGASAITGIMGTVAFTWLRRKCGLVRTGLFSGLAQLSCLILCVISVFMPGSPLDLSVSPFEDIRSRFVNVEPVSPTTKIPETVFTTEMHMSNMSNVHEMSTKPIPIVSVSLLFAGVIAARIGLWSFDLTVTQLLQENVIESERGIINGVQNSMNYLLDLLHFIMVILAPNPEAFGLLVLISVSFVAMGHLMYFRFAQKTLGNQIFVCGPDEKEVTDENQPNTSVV", "assay": "Fpn-GFP internalization in HEK293-Fpn cells, epi-fluorescence microscopy", "format": "cell-based", "excerpt": "In one embodiment, the antibodies of the instant invention (e.g., the antibodies capable of binding SEQ ID NO:2, SEQ ID NO:3, SEQ ID NO:4, SEQ ID NO:5) may be used to inactivate hepcidin. In one embodiment, EcR293 cells were stably transfected with a plasmid containing an ecdysone-regulated Ferroportin-GFP (Fpn-GFP) construct (Nemeth et al. Science 306:2090-2093, (2004)). In resulting HEK293-Fpn cells bioactive hepcidin binds to ferroportin and specifically induces the internalization of Fpn-GFP. Briefly, Fpn-GFP was induced by ponasterone treatment for 24 h. Cells were then incubated with 0.1 to 0.5 μM purified human hepcidin (from urine) for 6 h and imaged by epi-fluorescence microscopy. […] When hepcidin was absent from the medium, there was no internalization of Fpn-GFP.\ncR293 cells were stably transfected with a plasmid containing an ecdysone-regulated Ferroportin-GFP (Fpn-GFP) construct. In resulting HEK293-Fpn cells bioactive hepcidin binds to ferroportin and specifically induces the internalization of Fpn-GFP. Briefly, Fpn-GFP was induced by ponasterone treatment for 24 h. Cells were then incubated with 0.1 to 0.5 μM purified human hepcidin (from urine) for 6 h and imaged by epi-fluorescence microscopy."}, "[2]": {"test_system": "hepcidin protein in RINm5F cells", "assay": "Immunoblot analysis of hepcidin in stimulated RINm5F cells", "format": "cell-based, rat", "description": "(§1) RINM5F cells were grown in RPMI1640 media (PAA, Austria) containing L-glutamine, supplemented with 10% (vol/vol) heat inactivated fetal calf serum, penicillin (100 units/ml) and streptomycin (100 μg/mL). Cells were cultivated at 37° C. in 5% CO2. Cells were incubated with increasing concentrations of FENTA from 1 μM up to 65 μM for 72 hours and with 100 mM glucose (Merck, Darstadt, Germany) for up to 8 hours. After stimulation experiments, total rna or proteins were extracted from RINM5F cells and analyzed by quantitative PCR and immunoblot assays.\n(§2) In these experiments, protein extracts were incubated for 7 min at 94° C. in sample buffer with 4% (wt/vol) SDS (Merck, Darmstadt, Germany), 50 mM TRIS-HCl (PH 8.45), 1 mM EDTA, 3.24 mM dithiothreitol (ROTH, Karlsruhe, Germany), 12.5% (wt/vol) glycerol (Merck, Darmstadt, Germany), and 0.002% Bromophenol blue (Merck, Darmstadt, Germany). To detect hepcidin, a 16.5% Tricine-SDS-polyacrylamide gel was used."}, "RINm5F cells": {"test_system": "RINm5F cells", "assay": "Neutral red cytotoxicity assay in RINm5F cells", "format": "cell-based, rat", "conditions": "FeNTA concentrations used, 3 days after iron stimulation", "description": "(A): Hepcidin expression in RINm5F cells after iron (FeNTA) stimulation using quantitative RT-PCR (n=5) (1 μM FeNTA: P<0.01; 3 μM: P<0.001; 10 μM: P<0.002; 65 μM: P<0.05). (B): Cytotoxicity of FeNTA in RINm5F cells measured by neutral red assay 3 days after iron stimulation. […] (C): Immunoblot analysis of iron stimulated RINm5F cells showing hepcidin immunoreactivity at the range of 10 kDa. […] The second immunoreactive band at 20 kDa may reflect a dimeric type of hepcidin.\nas §2"}, "[3]": {"test_system": "hepcidin expression in RINm5F cells", "assay": "Hepcidin expression in RINm5F cells by quantitative RT-PCR after stimulation", "format": "cell-based, rat", "description": "as §1\nThe regulation of hepcidin expression in RINm5F cells was analyzed upon exposure to iron, since iron regulates hepcidin expression in the liver. The regulatory effect of iron on hepcidin gene expression was measured in these cells under various FENTA concentrations using quantitative RT-PCR as described, for example, in Gehrke et al., Blood 102: 371-376 (2003). A 2-step reverse transcriptase-polymerase chain reaction (RT-PCR) was performed using the Lightcycler system and relative quantification software version 1.0 (ROCHE Molecular Biochemicals; Mannheim, Germany). […] In a second step, transcripts of hepcidin were amplified in duplicates with specific sense and antisense primers. all transcripts were detected using SYBR GREEN I according to manufacturer's instructions and were normalized to β-actin as internal control."}}}
{"compound": "hepcidin: purified human hepcidin (from urine), bioactive peptide hormone binding ferroportin", "values": [{"measurement": "time to Fpn internalization", "setting": "[1]; 0.1 μM hepcidin", "result": "≤ 1", "unit": "h"}, {"measurement": "distribution of Fpn-GFP after addition of hepcidin", "setting": "[1]; 0.1 to 0.5 μM purified human hepcidin (from urine), 6 h", "result": "changed the distribution of Fpn-GFP from the cell surface to punctuate intracellular vesicles"}, {"measurement": "concentration of hepcidin that induced Fpn internalization", "setting": "[1]; HEK293-Fpn cells, within 1 h", "result": "≤ 0.1", "unit": "µM"}]}
{"compound": "Chemically synthesized hepcidin: hepcidin synthesized chemically", "values": [{"measurement": "efficiency in inducing Fpn-GFP internalization compared with hepcidin purified from urine", "setting": "[1]; same experiments as with urine hepcidin", "result": "as efficient in inducing Fpn-GFP internalization as hepcidin purified from urine"}]}
{"compound": "O=C([O-])CN(CC(=O)[O-])CC(=O)[O-].[Fe+3]", "note": "[FeNTA, Iron Nitrilotriacetate]", "values": [{"measurement": "hepcidin immunoreactivity at 10 kDa compared to control", "setting": "[2]; 3 μM FeNTA", "result": "up-regulation of hepcidin"}, {"measurement": "hepcidin immunoreactivity at 10 kDa compared to control", "setting": "[2]; 65 μM FeNTA", "result": "down-regulation"}, {"measurement": "cytotoxicity in neutral red assay", "setting": "RINm5F cells", "result": "no cytotoxicity exists under the iron concentrations used"}, {"measurement": "cytotoxicity in neutral red assay", "setting": "RINm5F cells; listed as FENTA", "result": "not cytotoxic"}, {"measurement": "hepcidin-mRNA regulation", "setting": "[3]; FeNTA 1 μM up to 10 μM, 72 hours", "result": "significant up-regulation of hepcidin-mRNA up to three-fold"}, {"measurement": "hepcidin expression", "setting": "[3]; FeNTA 65 μM or higher", "result": "down-regulated"}]}
